Target: T1, leucocyte cell-derived chemotaxin-2 (LECT2) amyloidosis (Homo sapiens, UniProt O14960)
T1 construct: biopsy-confirmed leucocyte cell-derived chemotaxin-2 (LECT2) amyloidosis underwent a positron emission tomography/computed tomography (PET/CT) scan with florbetapir; from tissue; host or cells: Living patient: amyloid deposits in lungs, spleen, adrenal glands, kidneys and bone marrow
T1 sequence (O14960 19-151): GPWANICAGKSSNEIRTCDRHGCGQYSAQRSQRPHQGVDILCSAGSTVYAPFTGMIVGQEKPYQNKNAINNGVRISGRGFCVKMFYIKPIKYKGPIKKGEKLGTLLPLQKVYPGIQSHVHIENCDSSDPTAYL
Test: PET/CT scan with florbetapir 18F in a patient with biopsy-confirmed LECT2 amyloidosis
Assay type: in vivo
Method: Administration to the subject of a pharmaceutical composition including a radiolabeled stilbene derivative or phenylbenzothiazole derivative chosen from the compounds of Formulas (I) to (VII) above for in vivo detection of the accumulated compound in LECT2-based protein structures can be accomplished intravenously, intraarterially, intrathecally, intramuscularly, intradermally, subcutaneously, or intracavitary. Dosage can vary. In one non-limiting example, dosage may vary from 0.001 μg/kg to 10 μg/kg. In another non-limiting example, the dose for florbetapir may be 370 MBq (10 mCi), maximum 50 μg mass dose, administered as a single intravenous bolus in a total volume of 10 mL or less. The injection may be followed with an intravenous flush of 0.9% sterile sodium chloride. In the method of the invention, sufficient time is allowed after administration such that the radiolabeled stilbene derivative or phenylbenzothiazole derivative can accumulate in any LECT2-based protein structures.
A person with end stage renal disease on haemodialysis secondary to biopsy-confirmed leucocyte cell-derived chemotaxin-2 (LECT2) amyloidosis underwent a positron emission tomography/computed tomography (PET/CT) scan with florbetapir ^18F. […] These organs normally have low activity on florbetapir PET/CT. The activity pattern is consistent with pathological data on the distribution of amyloidosis in this disease. […] A remarkable finding in this patient is the uptake in the kidney because they make little urine and is on chronic haemodialysis.

PET/CT activity in the heart (PET/CT, same patient, heart): normal background activity
SMILES: CNc1ccc(/C=C/c2ccc(OCCOCCOCC[18F])nc2)cc1 [florbetapir ^18F]
PET/CT activity in bone marrow (PET/CT, same patient, bone marrow): diffuse intense activity above normal background
accumulation in LECT2-based protein structures (positron emission tomography): accumulates within LECT2-based protein structures
